From the OligoGym collection
HELM strings list units from the 5' end as sugar, base in round brackets, then linkage (d deoxyribose, r ribose, m 2'-O-methyl, p phosphodiester). [sp] = phosphorothioate linkage

Columns and labels:
CDKN2B-AS1 [1] = assay: HEK293-TLR8, 100 nM ASO, then resiquimod
CDKN2B-AS1 [2] = assay: HEK293-TLR7, 100 nM ASO, then resiquimod

Substance | TLR8 potentiation (NF-kB luciferase) (fold of resiquimod alone) (CDKN2B-AS1 [1]) | TLR7 signal (NF-kB luciferase) (% of resiquimod alone) (CDKN2B-AS1 [2])
RNA1{m(A)[sp].m(A)[sp].m(A)[sp].m(A)[sp].m(G)[sp].d(A)[sp].d(T)[sp].d(T)[sp].d(A)[sp].d(T)[sp].d(C)[sp].d(T)[sp].d(T)[sp].d(C)[sp].d(T)[sp].m(U)[sp].m(U)[sp].m(U)[sp].m(A)[sp].m(A)}$$$$ | 3.19 | 47.4
RNA1{m(A)[sp].m(A)[sp].m(A)[sp].m(A)[sp].m(U)[sp].d(A)[sp].d(A)[sp].d(G)[sp].d(G)[sp].d(G)[sp].d(G)[sp].d(A)[sp].d(A)[sp].d(T)[sp].d(A)[sp].m(G)[sp].m(G)[sp].m(G)[sp].m(G)[sp].m(A)}$$$$ | 0.86 | 68.5
RNA1{m(A)[sp].m(A)[sp].m(A)[sp].m(G)[sp].m(A)[sp].d(T)[sp].d(T)[sp].d(A)[sp].d(T)[sp].d(C)[sp].d(T)[sp].d(T)[sp].d(C)[sp].d(T)[sp].d(T)[sp].m(U)[sp].m(U)[sp].m(A)[sp].m(A)[sp].m(U)}$$$$ | 2.96 | 49.3
RNA1{m(A)[sp].m(A)[sp].m(A)[sp].m(G)[sp].m(C)[sp].d(A)[sp].d(G)[sp].d(T)[sp].d(C)[sp].d(T)[sp].d(C)[sp].d(C)[sp].d(A)[sp].d(T)[sp].d(G)[sp].m(U)[sp].m(C)[sp].m(C)[sp].m(C)[sp].m(A)}$$$$ | 1.9 | 27.2
RNA1{m(A)[sp].m(A)[sp].m(G)[sp].m(A)[sp].m(U)[sp].d(T)[sp].d(A)[sp].d(T)[sp].d(C)[sp].d(T)[sp].d(T)[sp].d(C)[sp].d(T)[sp].d(T)[sp].d(T)[sp].m(U)[sp].m(A)[sp].m(A)[sp].m(U)[sp].m(U)}$$$$ | 2.91 | 42.1
RNA1{m(A)[sp].m(A)[sp].m(G)[sp].m(C)[sp].m(A)[sp].d(G)[sp].d(T)[sp].d(C)[sp].d(T)[sp].d(C)[sp].d(C)[sp].d(A)[sp].d(T)[sp].d(G)[sp].d(T)[sp].m(C)[sp].m(C)[sp].m(C)[sp].m(A)[sp].m(G)}$$$$ | 1.79 | 35.7
RNA1{m(A)[sp].m(A)[sp].m(G)[sp].m(G)[sp].m(U)[sp].d(G)[sp].d(G)[sp].d(C)[sp].d(C)[sp].d(A)[sp].d(C)[sp].d(A)[sp].d(G)[sp].d(G)[sp].d(C)[sp].m(A)[sp].m(A)[sp].m(C)[sp].m(G)[sp].m(U)}$$$$ | 0.58 | 57.9
RNA1{m(A)[sp].m(A)[sp].m(U)[sp].m(A)[sp].m(U)[sp].d(C)[sp].d(T)[sp].d(G)[sp].d(C)[sp].d(T)[sp].d(G)[sp].d(C)[sp].d(C)[sp].d(C)[sp].d(A)[sp].m(C)[sp].m(C)[sp].m(U)[sp].m(U)[sp].m(C)}$$$$ | 1.79 | 43.7
RNA1{m(A)[sp].m(A)[sp].m(U)[sp].m(U)[sp].m(U)[sp].d(A)[sp].d(A)[sp].d(A)[sp].d(G)[sp].d(C)[sp].d(A)[sp].d(T)[sp].d(G)[sp].d(A)[sp].d(A)[sp].m(U)[sp].m(A)[sp].m(U)[sp].m(U)[sp].m(A)}$$$$ | 3.29 | 46.8
RNA1{m(A)[sp].m(G)[sp].m(A)[sp].m(A)[sp].m(A)[sp].d(G)[sp].d(A)[sp].d(A)[sp].d(G)[sp].d(C)[sp].d(A)[sp].d(A)[sp].d(A)[sp].d(G)[sp].d(A)[sp].m(U)[sp].m(U)[sp].m(C)[sp].m(A)[sp].m(A)}$$$$ | 1.96 | 43
RNA1{m(A)[sp].m(G)[sp].m(A)[sp].m(U)[sp].m(U)[sp].d(A)[sp].d(T)[sp].d(C)[sp].d(T)[sp].d(T)[sp].d(C)[sp].d(T)[sp].d(T)[sp].d(T)[sp].d(T)[sp].m(A)[sp].m(A)[sp].m(U)[sp].m(U)[sp].m(U)}$$$$ | 3.02 | 37.1
RNA1{m(A)[sp].m(G)[sp].m(C)[sp].m(A)[sp].m(G)[sp].d(T)[sp].d(C)[sp].d(T)[sp].d(C)[sp].d(C)[sp].d(A)[sp].d(T)[sp].d(G)[sp].d(T)[sp].d(C)[sp].m(C)[sp].m(C)[sp].m(A)[sp].m(G)[sp].m(G)}$$$$ | 2.81 | 25.5
RNA1{m(A)[sp].m(G)[sp].m(G)[sp].m(A)[sp].m(U)[sp].d(T)[sp].d(A)[sp].d(A)[sp].d(A)[sp].d(A)[sp].d(C)[sp].d(A)[sp].d(G)[sp].d(A)[sp].d(T)[sp].m(U)[sp].m(A)[sp].m(A)[sp].m(U)[sp].m(A)}$$$$ | 2.19 | 36.3
RNA1{m(A)[sp].m(G)[sp].m(G)[sp].m(C)[sp].m(C)[sp].d(T)[sp].d(C)[sp].d(C)[sp].d(A)[sp].d(G)[sp].d(T)[sp].d(G)[sp].d(T)[sp].d(C)[sp].d(T)[sp].m(U)[sp].m(C)[sp].m(U)[sp].m(C)[sp].m(C)}$$$$ | 2.19 | 44.7
RNA1{m(A)[sp].m(G)[sp].m(U)[sp].m(C)[sp].m(U)[sp].d(C)[sp].d(C)[sp].d(A)[sp].d(T)[sp].d(G)[sp].d(T)[sp].d(C)[sp].d(C)[sp].d(C)[sp].d(A)[sp].m(G)[sp].m(G)[sp].m(C)[sp].m(C)[sp].m(U)}$$$$ | 1.64 | 35.8
RNA1{m(A)[sp].m(G)[sp].m(U)[sp].m(G)[sp].m(G)[sp].d(C)[sp].d(A)[sp].d(C)[sp].d(A)[sp].d(T)[sp].d(A)[sp].d(C)[sp].d(C)[sp].d(A)[sp].d(C)[sp].m(A)[sp].m(C)[sp].m(C)[sp].m(C)[sp].m(U)}$$$$ | 2.24 | 42
RNA1{m(A)[sp].m(U)[sp].m(A)[sp].m(U)[sp].m(C)[sp].d(T)[sp].d(G)[sp].d(C)[sp].d(T)[sp].d(G)[sp].d(C)[sp].d(C)[sp].d(C)[sp].d(A)[sp].d(C)[sp].m(C)[sp].m(U)[sp].m(U)[sp].m(C)[sp].m(U)}$$$$ | 2.55 | 47.5
RNA1{m(A)[sp].m(U)[sp].m(U)[sp].m(U)[sp].m(C)[sp].d(C)[sp].d(A)[sp].d(C)[sp].d(A)[sp].d(T)[sp].d(G)[sp].d(C)[sp].d(C)[sp].d(C)[sp].d(A)[sp].m(G)[sp].m(U)[sp].m(G)[sp].m(U)[sp].m(U)}$$$$ | 2.06 | 32
RNA1{m(C)[sp].m(A)[sp].m(G)[sp].m(G)[sp].m(C)[sp].d(C)[sp].d(T)[sp].d(C)[sp].d(C)[sp].d(A)[sp].d(G)[sp].d(T)[sp].d(G)[sp].d(T)[sp].d(C)[sp].m(U)[sp].m(U)[sp].m(C)[sp].m(U)[sp].m(C)}$$$$ | 2.02 | 54.1
RNA1{m(C)[sp].m(A)[sp].m(G)[sp].m(U)[sp].m(C)[sp].d(T)[sp].d(C)[sp].d(C)[sp].d(A)[sp].d(T)[sp].d(G)[sp].d(T)[sp].d(C)[sp].d(C)[sp].d(C)[sp].m(A)[sp].m(G)[sp].m(G)[sp].m(C)[sp].m(C)}$$$$ | 2.73 | 47.8
RNA1{m(C)[sp].m(A)[sp].m(G)[sp].m(U)[sp].m(G)[sp].d(T)[sp].d(T)[sp].d(T)[sp].d(T)[sp].d(T)[sp].d(A)[sp].d(A)[sp].d(T)[sp].d(T)[sp].d(T)[sp].m(U)[sp].m(G)[sp].m(U)[sp].m(A)[sp].m(G)}$$$$ | 3.18 | 62.7
RNA1{m(C)[sp].m(C)[sp].m(A)[sp].m(U)[sp].m(G)[sp].d(T)[sp].d(C)[sp].d(C)[sp].d(C)[sp].d(A)[sp].d(G)[sp].d(G)[sp].d(C)[sp].d(C)[sp].d(T)[sp].m(C)[sp].m(C)[sp].m(A)[sp].m(G)[sp].m(U)}$$$$ | 1.24 | 41.4
RNA1{m(C)[sp].m(C)[sp].m(U)[sp].m(A)[sp].m(G)[sp].d(A)[sp].d(A)[sp].d(A)[sp].d(G)[sp].d(A)[sp].d(A)[sp].d(G)[sp].d(C)[sp].d(A)[sp].d(A)[sp].m(A)[sp].m(G)[sp].m(A)[sp].m(U)[sp].m(U)}$$$$ | 3.58 | 57.2
RNA1{m(C)[sp].m(U)[sp].m(C)[sp].m(U)[sp].m(C)[sp].d(T)[sp].d(T)[sp].d(T)[sp].d(C)[sp].d(T)[sp].d(G)[sp].d(T)[sp].d(G)[sp].d(G)[sp].d(T)[sp].m(U)[sp].m(U)[sp].m(C)[sp].m(U)[sp].m(C)}$$$$ | 3.82 | 92.3
RNA1{m(C)[sp].m(U)[sp].m(U)[sp].m(C)[sp].m(A)[sp].d(C)[sp].d(A)[sp].d(T)[sp].d(C)[sp].d(C)[sp].d(A)[sp].d(A)[sp].d(G)[sp].d(A)[sp].d(C)[sp].m(A)[sp].m(G)[sp].m(C)[sp].m(A)[sp].m(A)}$$$$ | 2.26 | 55
RNA1{m(C)[sp].m(U)[sp].m(U)[sp].m(G)[sp].m(U)[sp].d(G)[sp].d(A)[sp].d(A)[sp].d(A)[sp].d(A)[sp].d(G)[sp].d(A)[sp].d(T)[sp].d(T)[sp].d(A)[sp].m(U)[sp].m(C)[sp].m(U)[sp].m(U)[sp].m(C)}$$$$ | 3.89 | 85.3
RNA1{m(G)[sp].m(A)[sp].m(A)[sp].m(A)[sp].m(A)[sp].d(G)[sp].d(A)[sp].d(T)[sp].d(T)[sp].d(A)[sp].d(T)[sp].d(C)[sp].d(T)[sp].d(T)[sp].d(C)[sp].m(U)[sp].m(U)[sp].m(U)[sp].m(U)[sp].m(A)}$$$$ | 1.31 | 34.4
